Tests used:
[1] = test system: Male and female M. croceipes; design: species or system Microplitis croceipes; conditions: in vivo
M. croceipes = test system: M. croceipes; design: species or system Microplitis croceipes; conditions: in vivo

CCCCCC(=O)CC [3-Octanone]
Head-sticking behavior [1]: no head-sticking behavior
Average number of times a trained wasp entered the opening (M. croceipes): approximately 1.5
Average time spent in the opening (M. croceipes): 15 s
Trained wasps displaying head-sticking behavior (M. croceipes): about 18 out of 20

From patent publication US20030148529A1 (priority 2000, published 2003)
